Patent US10792260B2, “Retinopathy treatment” (CHS Pharma, Inc., priority 2013, dated 2020)

Experiments:
ARPE19 cells [1] = assay: TBHP induced oxidative stress, cell viability by MTS assay; conditions: for protection against TBHP damage as measured by cell viability: 24 hours pretreatment, varying concentrations of TBHP
Method: Cell culture studies using RPE cells—For cell culture experiments human RPE cell line ARPE19 (ATCC # CRL 2302) purchased from American Type Culture Collection (Rockville, Md.) was used. Cells were maintained in DMEM F-12 supplemented with L-glutamine. The culture media also contained 10% fetal bovine serum, 100 units/ml penicillin and 100 ug/ml streptomycin at 37 C and 5% CO2. Cells from passages two to five were treated with either no drug or a range of concentrations of the experimental drugs prior to exposing them to oxidative stress. Oxidative stress was induced chemically by adding tert-butyl hydrogen peroxide (TBHP) or by exposing the cells to UVB light. ARPE19 cells were plated in 96 well plates at a concentration of 10,000 cells/well. Change in cellular viability was measured using the MTS assay kit from Promega (Madison, Wis.).
Experiments involving TBHP induced oxidative stress—ARPE19 cells were grown for 24 hours in 96 well plates in DMEM F-12 complete media. Then they were either treated with no drug or pre-incubated with the experimental drug for 24 hours. The next day the cells were exposed to a range of concentrations (175 μM to 300 μM) of TBHP for 24 hours. On the following day cell viability was measured by the MTS assay (Promega) according to the manufacturer's protocol and which was measured by absorbance at 490 nm using a colorimetric microtiter plate reader (SpectraMax Plus 384; Molecular Devices).
(§2) Cell viability assays—Cellular viability was determined using the CellTiter 96 Aqueous One Cell Proliferation Assay from Promega (Madison, Wis.) as described elsewhere (Marchetti et al, 2009). This assay contains a tertrazolium salt that is converted to formazan dye by the activity of mitochondrial dehydrogenases. The change in color imparted by this conversion was detected by measuring absorbance at 490 nm using a colorimetric microtiter plate reader (Spectramax Plus 384, Molecular Devices).
(§3) Statistical analysis—Unless otherwise mentioned, results of all cell viability experiments represent the mean of three replicates of a representative experiment. The error bars indicate standard deviations. The means were compared using standard t-test and P values <0.05 were considered to be statistically significant.

ARPE19 cells [2] = assay: UVB radiation induced damage, cell viability by MTS assay
Method: Cell culture studies using RPE cells—For cell culture experiments human RPE cell line ARPE19 (ATCC # CRL 2302) purchased from American Type Culture Collection (Rockville, Md.) was used. Cells were maintained in DMEM F-12 supplemented with L-glutamine. The culture media also contained 10% fetal bovine serum, 100 units/ml penicillin and 100 ug/ml streptomycin at 37 C and 5% CO2. Cells from passages two to five were treated with either no drug or a range of concentrations of the experimental drugs prior to exposing them to oxidative stress. […] ARPE19 cells were plated in 96 well plates at a concentration of 10,000 cells/well. Change in cellular viability was measured using the MTS assay kit from Promega (Madison, Wis.).
Exposure of RPE cells to UVB radiation—For UV radiation assays, the ARPE19 cells were plated in 96 well plates. After 24 hours of incubation with or without our drug the cells were exposed to UVB light (Ultraspec 2000, Pharmacia Biotech) that emit wavelengths at a range of 290 nm to 370 nm. UVB light at intensities of either 800 mj/cm2 or 1200 mj/cm2 were used for our experiments. The duration of exposure of the two energy levels were determined using the formula: Hλ=t×Eλ, where Hλ is the energy level (J/cm2) t is the duration of exposure in seconds and the Eλ is the irradiance (W/cm2) of the UVB source. Irradiance was measured at 1.3 W/cm2, and the exposure times for energy levels of 800 mj/cm2 and 1200 mj/cm2 were calculated to be 9 minutes 14 seconds and 14 minutes 24 seconds, respectively. Immediately after the UVB exposure, the media was replaced with fresh complete DMEM F-12 medium and after 24 hours of incubation at 37° C. and 5% CO2, cellular viability was measured using the MTS assay.
as §2, §3

BALB/c mice = assay: Photooxidative stress in vivo study (light damage, intravitreal injection)
Method: Photooxidative stress in vivo study—The procedures for the in vivo experiments conformed to the ARVO Statement for the Use of Animals in Ophthalmic and Vision Research and were approved by the IACUC at FAU. For the in vivo photooxidative stress experiments albino BALB/c mice were divided into two groups. Mice belonging to the control group were kept in normal light of 12 hr light/dark cycle and not injected with any drug. The animals of the experimental group were dark-adapted for 24 hours after which they were anesthetized with ketamine/xylazine and injected intravitrealy with sulindac, total volume injected was 2 μl in each eye. Concentration of injected sulindac was 0.094 μg/μl. To prepare our injection, the sulindac powder was first dissolved in Tris buffer (pH 8.0) at a concentration of 200 mM. This 200 mM stock was further diluted in sterile PBS to get the appropriate dilution required for the injections. The sulindac solution was injected into the right eye and PBS in the left eye. The animals in the experimental group received atropine for pupil dilation followed by exposure to continuous bright white light. The intensity and duration of light exposure was 6000 lux for 24 hours. Following light exposure, animals were kept in normal light cycle for 5 days prior to harvesting the ocular tissues for histological or biochemical analysis.
Biochemical analysis of ocular tissues—After the completion of the treatment, animals were euthanized using isoflurane inhalation and eyes were enucleated. Following enucleation, the lenses were removed and retinas were carefully removed and washed in PBS. The retinas were homogenized in RIPA lysis buffer and total protein was isolated. The retinal protein was used for evaluation of preconditioning markers and rhodopsin through Western blotting.
Analysis of photoreceptor (PR) cell viability—The eyes were enucleated and fixed in 2.5% glutaraldehyde and 2% formaldehyde, bisected along the vertical meridian, embedded, and retinal sections at 50 microns obtained. Photoxidative stress-induced loss of PR cells was quantified in LM sections by counting the number of ONL nuceli from a series of digitized images of retinal sections.

iNOS = assay: Western blotting of preconditioning marker iNOS in ARPE19 cells; format: cell-based, human; conditions: RPE cells pretreated for 48 hours, 200 μM
Method: (§1) Western blotting protocol—Western blotting was carried out on proteins isolated from ARPE19 cells cultured in 60 mm dishes with no drug or 200 μM sulindac or a combination of 200 μM sulindac and 2 μM chelerythrine. Actin and GAPDH were used as control for standardizing protein concentrations. Two late phase preconditioning markers, Hsp27 and iNOS were detected with antibodies (Sant Cruz Biotechnology).

Hsp27 = assay: Western blotting of preconditioning marker Hsp27 in ARPE19 cells; format: cell-based, human; conditions: RPE cells pretreated for 48 hours, 200 μM
Method: as §1

[3] = inhibitor 2 uM added simultaneously with sulindac
[4] = eyes treated prior to light exposure
[5] = intravitreal 2 μl of 0.094 μg/μl before 6000 lux for 24 hours

CCCCCC(O)CCCC(=O)O (stereo not drawn) [5-HD, 5-hydroxydecanoic acid]
reversal of sulindac's protective role against TBHP (ARPE19 cells [1]; mK(ATP) channel blocker 50 uM or 75 uM co-incubated with sulindac): almost complete reversal

CCC(=O)NC[C@H](Cc1ccc(OCCc2nc(-c3ccccc3)oc2C)cc1)N/C(C)=C\C(=O)c1ccc(C(F)(F)F)cc1 [GW 6471]
effect on sulindac's protection of RPE cells against TBHP induced stress (ARPE19 cells [1]; PPAR alpha antagonist added with sulindac): prevented the protection

O=c1c2nc(Br)n([C@@H]3O[C@@H]4CO[P@@](O)(=S)O[C@H]4[C@H]3O)c2nc2[nH]c(-c3ccccc3)cn12 [Rp-Br-8-PET-cGMPs]
reversal of protection by sulindac preincubation (UVB damage) on PKG inhibition (ARPE19 cells [2]; PKG inhibitor with sulindac): significantly reversed

COc1ccc2c(c[n+](C)c3c4cc5c(cc4ccc23)OCO5)c1OC [chelerythrine]
reversal of protective effect of sulindac against TBHP damage (ARPE19 cells [1]; [3]): significantly reversed the protective effect | reversal of protective effect of sulindac against UV damage (ARPE19 cells [2]; [3]): significantly reversed the protective effect

CC(=O)c1c(O)c(C)c(O)c(Cc2c(O)c3c(c(C(=O)/C=C/c4ccccc4)c2O)OC(C)(C)C=C3)c1O [rottlerin]
reversal of the sulindac protection against UVB (ARPE19 cells [2]; inhibitor 3 uM with sulindac): no reversal

CC1=C(CC(=O)O)c2cc(F)ccc2/C1=C\c1ccc(S(C)(=O)=O)cc1 [sulindac sulfone]
protection against UV damage (cell viability) (ARPE19 cells [2]; 200 uM, in place of sulindac): complete protection

CC1=C(CC(=O)O)c2cc(F)ccc2/C1=C\c1ccc([S+](C)[O-])cc1 (stereo not drawn) [sulindac]
Hsp27 level in retinal total protein (Western blotting) (BALB/c mice; [4]): upregulation | iNOS level in retinal total protein (Western blotting) (BALB/c mice; [4]): upregulation | Rhodopsin levels by Western blotting, treated eye compared to PBS-treated eye (BALB/c mice; [5]): higher | protection of photoreceptors against photooxidative stress induced loss of viability (histology) (BALB/c mice; [5]): protection of photoreceptors | thickness of the photoreceptor cell nuclear layer, greater than PBS-treated eye (BALB/c mice; intravitreal 2 μl of 0.094 μg/μl before 6000 lux for 24 hours, histological sections): about 40% | protection against TBHP damage as measured by cell viability (ARPE19 cells [1]; sulindac 125 uM): essentially complete protection | protection against TBHP damage as measured by cell viability (ARPE19 cells [1]; sulindac 200 uM): essentially complete protection | induction of iNOS (iNOS): significant induction | protection against UVB exposure (cell viability) (ARPE19 cells [2]; 200 uM, 24 hours pretreatment, 1200 mj UVB): about 50% | induction of Hsp27 (Hsp27): significant induction

O=S(=O)(O)c1cc(O)c(O)c(S(=O)(=O)O)c1 [tiron]
reversal of sulindac's protection against TBHP (ARPE19 cells [1]; ROS scavenger 1 uM or 2 uM coincubated with sulindac): complete reversal
